Measurements from US10251395B2, “Substituted furano-/thienocycloalkylamino-2-pyrimidine derivatives and use thereof for controlling undesired plant growth” (Bayer CropScience Aktiengesellschaft, priority 2015, dated 2019).

Assays:
Abutilon theophrasti [1] = test: Pre-emergence herbicidal effect; type: in vivo; details: scored visually after 3 weeks
Method in brief: (§1)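 Seeds in sandy loam were covered with soil and treated pre-emergence with WP or EC formulations applied as aqueous spray with 0.2% wetting agent. Percent damage was scored visually after 3 weeks relative to untreated controls.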

Alopecurus myosuroides [2] = test: Pre-emergence herbicidal effect; type: in vivo; details: scored visually after 3 weeks
Method in brief: as §1

Amaranthus retroflexus [3] = test: Pre-emergence herbicidal effect; type: in vivo; details: scored visually after 3 weeks
Method in brief: as §1

Avena fatua [4] = test: Pre-emergence herbicidal effect; type: in vivo; details: Dosage 320 g/ha, scored visually after 3 weeks
Method in brief: as §1

Cyperus esculentus = test: Pre-emergence herbicidal effect; type: in vivo; details: Dosage 320 g/ha, scored visually after 3 weeks
Method in brief: as §1

Echinochloa crus-galli [5] = test: Pre-emergence herbicidal effect; type: in vivo; details: scored visually after 3 weeks
Method in brief: as §1

Ipomoea purpurea [6] = test: Pre-emergence herbicidal effect; type: in vivo; details: scored visually after 3 weeks
Method in brief: as §1

Lolium multiflorum [7] = test: Pre-emergence herbicidal effect; type: in vivo; details: scored visually after 3 weeks
Method in brief: as §1

Matricaria inodora [8] = test: Pre-emergence herbicidal effect; type: in vivo; details: scored visually after 3 weeks
Method in brief: as §1

Polygonum convolvulus [9] = test: Pre-emergence herbicidal effect; type: in vivo; details: scored visually after 3 weeks
Method in brief: as §1

Setaria viridis [10] = test: Pre-emergence herbicidal effect; type: in vivo; details: scored visually after 3 weeks
Method in brief: as §1

Stellaria media [11] = test: Pre-emergence herbicidal effect; type: in vivo; details: scored visually after 3 weeks
Method in brief: as §1

Veronica persica [12] = test: Pre-emergence herbicidal effect; type: in vivo; details: scored visually after 3 weeks
Method in brief: as §1

Viola tricolor [13] = test: Pre-emergence herbicidal effect; type: in vivo; details: scored visually after 3 weeks
Method in brief: as §1

Abutilon theophrasti [14] = test: Post-emergence herbicidal effect; type: in vivo; details: assessed visually after about 3 weeks vs untreated controls
Method in brief: (§2)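 Ratings are visual percentages taken around 3 weeks after treatment, compared with untreated plants. Treatment consisted of an aqueous spray of WP or EC formulations, with 0.2% wetting agent, onto one-leaf-stage weeds raised from seed in sandy loam.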

Alopecurus myosuroides [15] = test: Post-emergence herbicidal effect; type: in vivo; details: assessed visually after about 3 weeks vs untreated controls
Method in brief: as §2

Amaranthus retroflexus [16] = test: Post-emergence herbicidal effect; type: in vivo; details: assessed visually after about 3 weeks vs untreated controls
Method in brief: as §2

Avena fatua [17] = test: Post-emergence herbicidal effect; type: in vivo; details: assessed visually after about 3 weeks vs untreated controls
Method in brief: as §2

Echinochloa crus-galli [18] = test: Post-emergence herbicidal effect; type: in vivo; details: assessed visually after about 3 weeks vs untreated controls
Method in brief: as §2

Ipomoea purpurea [19] = test: Post-emergence herbicidal effect; type: in vivo; details: assessed visually after about 3 weeks vs untreated controls
Method in brief: as §2

Lolium multiflorum [20] = test: Post-emergence herbicidal effect; type: in vivo; details: assessed visually after about 3 weeks vs untreated controls
Method in brief: as §2

Matricaria inodora [21] = test: Post-emergence herbicidal effect; type: in vivo; details: assessed visually after about 3 weeks vs untreated controls
Method in brief: as §2

Polygonum convolvulus [22] = test: Post-emergence herbicidal effect; type: in vivo; details: assessed visually after about 3 weeks vs untreated controls
Method in brief: as §2

Setaria viridis [23] = test: Post-emergence herbicidal effect; type: in vivo; details: assessed visually after about 3 weeks vs untreated controls
Method in brief: as §2

Stellaria media [24] = test: Post-emergence herbicidal effect; type: in vivo; details: assessed visually after about 3 weeks vs untreated controls
Method in brief: as §2

Veronica persica [25] = test: Post-emergence herbicidal effect; type: in vivo; details: assessed visually after about 3 weeks vs untreated controls
Method in brief: as §2

Viola tricolor [26] = test: Post-emergence herbicidal effect; type: in vivo; details: assessed visually after about 3 weeks vs untreated controls
Method in brief: as §2

logP (HCOOH) = type: physicochemical; details: for chromatographic logP: HCOOH (formic acid)
Text: Table 2 (physicochemical characterization of selected synthesis examples)

Cc1cc2c(s1)CCC[C@H]2Nc1ncc(C(F)(F)F)c(N)n1 [compound 47, N2-[(4R)-2-Methyl-4,5,6,7-tetrahydrobenzothiophen-4-yl]-5-(trifluoromethyl)pyrimidine-2,4-diamine]
ABUTH pre-emergence efficacy (herbicidal activity) (Abutilon theophrasti [1]; Dosage 80 g/ha): 80% | ABUTH pre-emergence efficacy (herbicidal activity) (Abutilon theophrasti [1]; Dosage 320 g/ha): 100% | ALOMY pre-emergence efficacy (herbicidal activity) (Alopecurus myosuroides [2]; Dosage 80 g/ha): 80% | ALOMY pre-emergence efficacy (herbicidal activity) (Alopecurus myosuroides [2]; Dosage 320 g/ha): 100% | AMARE pre-emergence efficacy (herbicidal activity) (Amaranthus retroflexus [3]; Dosage 80 g/ha): 100% | AMARE pre-emergence efficacy (herbicidal activity) (Amaranthus retroflexus [3]; Dosage 320 g/ha): 100% | AVEFA pre-emergence efficacy (herbicidal activity) (Avena fatua [4]): 100% | CYPES pre-emergence efficacy (herbicidal activity) (Cyperus esculentus): 80% | ECHCG pre-emergence efficacy (herbicidal activity) (Echinochloa crus-galli [5]; Dosage 80 g/ha): 100% | ECHCG pre-emergence efficacy (herbicidal activity) (Echinochloa crus-galli [5]; Dosage 320 g/ha): 100% | PHBPU pre-emergence efficacy (herbicidal activity) (Ipomoea purpurea [6]; Dosage 80 g/ha): 100% | PHBPU pre-emergence efficacy (herbicidal activity) (Ipomoea purpurea [6]; Dosage 320 g/ha): 100% | LOLMU pre-emergence efficacy (herbicidal activity) (Lolium multiflorum [7]; Dosage 320 g/ha): 100% | MATIN pre-emergence efficacy (herbicidal activity) (Matricaria inodora [8]; Dosage 80 g/ha): 100% | MATIN pre-emergence efficacy (herbicidal activity) (Matricaria inodora [8]; Dosage 320 g/ha): 100% | POLCO pre-emergence efficacy (herbicidal activity) (Polygonum convolvulus [9]; Dosage 80 g/ha): 100% | POLCO pre-emergence efficacy (herbicidal activity) (Polygonum convolvulus [9]; Dosage 320 g/ha): 100% | SETVI pre-emergence efficacy (herbicidal activity) (Setaria viridis [10]; Dosage 80 g/ha): 100% | SETVI pre-emergence efficacy (herbicidal activity) (Setaria viridis [10]; Dosage 320 g/ha): 100% | STEME pre-emergence efficacy (herbicidal activity) (Stellaria media [11]; Dosage 80 g/ha): 100% | STEME pre-emergence efficacy (herbicidal activity) (Stellaria media [11]; Dosage 320 g/ha): 100% | VERPE pre-emergence efficacy (herbicidal activity) (Veronica persica [12]; Dosage 80 g/ha): 100% | VERPE pre-emergence efficacy (herbicidal activity) (Veronica persica [12]; Dosage 320 g/ha): 100% | VIOTR pre-emergence efficacy (herbicidal activity) (Viola tricolor [13]; Dosage 80 g/ha): 100% | VIOTR pre-emergence efficacy (herbicidal activity) (Viola tricolor [13]; Dosage 320 g/ha): 100% | post-emergence efficacy ABUTH (Abutilon theophrasti [14]; 80 g/ha): 90% | post-emergence efficacy ABUTH (Abutilon theophrasti [14]; 320 g/ha): 90% | post-emergence efficacy ALOMY (Alopecurus myosuroides [15]; 320 g/ha): 100% | post-emergence efficacy AMARE (Amaranthus retroflexus [16]; 320 g/ha): 90% | post-emergence efficacy AVEFA (Avena fatua [17]; 80 g/ha): 100% | post-emergence efficacy AVEFA (Avena fatua [17]; 320 g/ha): 90% | post-emergence efficacy ECHCG (Echinochloa crus-galli [18]; 80 g/ha): 100% | post-emergence efficacy ECHCG (Echinochloa crus-galli [18]; 320 g/ha): 100% | post-emergence efficacy PHBPU (Ipomoea purpurea [19]; 80 g/ha): 100% | post-emergence efficacy PHBPU (Ipomoea purpurea [19]; 320 g/ha): 100% | post-emergence efficacy LOLMU (Lolium multiflorum [20]; 320 g/ha): 80% | post-emergence efficacy MATIN (Matricaria inodora [21]; 80 g/ha): 90% | post-emergence efficacy MATIN (Matricaria inodora [21]; 320 g/ha): 100% | post-emergence efficacy POLCO (Polygonum convolvulus [22]; 80 g/ha): 80% | post-emergence efficacy POLCO (Polygonum convolvulus [22]; 320 g/ha): 80% | post-emergence efficacy SETVI (Setaria viridis [23]; 80 g/ha): 90% | post-emergence efficacy SETVI (Setaria viridis [23]; 320 g/ha): 90% | post-emergence efficacy STEME (Stellaria media [24]; 80 g/ha): 100% | post-emergence efficacy STEME (Stellaria media [24]; 320 g/ha): 100% | post-emergence efficacy VERPE (Veronica persica [25]; 80 g/ha): 100% | post-emergence efficacy VIOTR (Viola tricolor [26]; 80 g/ha): 100% | post-emergence efficacy VIOTR (Viola tricolor [26]; 320 g/ha): 100% | chromatographic logP (logP (HCOOH)): 2.62

Cc1cc2c(s1)CCCC2Nc1ncc(C(F)(F)F)c(N)n1 (racemic) [compound 257]
ABUTH pre-emergence efficacy (herbicidal activity) (Abutilon theophrasti [1]; Dosage 80 g/ha): 70% | ABUTH pre-emergence efficacy (herbicidal activity) (Abutilon theophrasti [1]; Dosage 320 g/ha): 100% | ALOMY pre-emergence efficacy (herbicidal activity) (Alopecurus myosuroides [2]; Dosage 80 g/ha): 100% | ALOMY pre-emergence efficacy (herbicidal activity) (Alopecurus myosuroides [2]; Dosage 320 g/ha): 100% | AMARE pre-emergence efficacy (herbicidal activity) (Amaranthus retroflexus [3]; Dosage 80 g/ha): 100% | AMARE pre-emergence efficacy (herbicidal activity) (Amaranthus retroflexus [3]; Dosage 320 g/ha): 100% | AVEFA pre-emergence efficacy (herbicidal activity) (Avena fatua [4]): 100% | ECHCG pre-emergence efficacy (herbicidal activity) (Echinochloa crus-galli [5]; Dosage 80 g/ha): 100% | ECHCG pre-emergence efficacy (herbicidal activity) (Echinochloa crus-galli [5]; Dosage 320 g/ha): 100% | PHBPU pre-emergence efficacy (herbicidal activity) (Ipomoea purpurea [6]; Dosage 320 g/ha): 100% | LOLMU pre-emergence efficacy (herbicidal activity) (Lolium multiflorum [7]; Dosage 80 g/ha): 100% | LOLMU pre-emergence efficacy (herbicidal activity) (Lolium multiflorum [7]; Dosage 320 g/ha): 100% | MATIN pre-emergence efficacy (herbicidal activity) (Matricaria inodora [8]; Dosage 80 g/ha): 100% | MATIN pre-emergence efficacy (herbicidal activity) (Matricaria inodora [8]; Dosage 320 g/ha): 100% | POLCO pre-emergence efficacy (herbicidal activity) (Polygonum convolvulus [9]; Dosage 80 g/ha): 100% | POLCO pre-emergence efficacy (herbicidal activity) (Polygonum convolvulus [9]; Dosage 320 g/ha): 100% | SETVI pre-emergence efficacy (herbicidal activity) (Setaria viridis [10]; Dosage 80 g/ha): 100% | SETVI pre-emergence efficacy (herbicidal activity) (Setaria viridis [10]; Dosage 320 g/ha): 100% | STEME pre-emergence efficacy (herbicidal activity) (Stellaria media [11]; Dosage 80 g/ha): 100% | STEME pre-emergence efficacy (herbicidal activity) (Stellaria media [11]; Dosage 320 g/ha): 100% | VERPE pre-emergence efficacy (herbicidal activity) (Veronica persica [12]; Dosage 80 g/ha): 100% | VERPE pre-emergence efficacy (herbicidal activity) (Veronica persica [12]; Dosage 320 g/ha): 100% | VIOTR pre-emergence efficacy (herbicidal activity) (Viola tricolor [13]; Dosage 80 g/ha): 100% | VIOTR pre-emergence efficacy (herbicidal activity) (Viola tricolor [13]; Dosage 320 g/ha): 100% | post-emergence efficacy ABUTH (Abutilon theophrasti [14]; 80 g/ha): 90% | post-emergence efficacy ABUTH (Abutilon theophrasti [14]; 320 g/ha): 90% | post-emergence efficacy ALOMY (Alopecurus myosuroides [15]; 80 g/ha): 70% | post-emergence efficacy ALOMY (Alopecurus myosuroides [15]; 320 g/ha): 90% | post-emergence efficacy AMARE (Amaranthus retroflexus [16]; 80 g/ha): 80% | post-emergence efficacy AMARE (Amaranthus retroflexus [16]; 320 g/ha): 90% | post-emergence efficacy AVEFA (Avena fatua [17]; 80 g/ha): 70% | post-emergence efficacy AVEFA (Avena fatua [17]; 320 g/ha): 100% | post-emergence efficacy ECHCG (Echinochloa crus-galli [18]; 80 g/ha): 90% | post-emergence efficacy ECHCG (Echinochloa crus-galli [18]; 320 g/ha): 100% | post-emergence efficacy PHBPU (Ipomoea purpurea [19]; 80 g/ha): 80% | post-emergence efficacy PHBPU (Ipomoea purpurea [19]; 320 g/ha): 90% | post-emergence efficacy LOLMU (Lolium multiflorum [20]; 80 g/ha): 100% | post-emergence efficacy LOLMU (Lolium multiflorum [20]; 320 g/ha): 100% | post-emergence efficacy MATIN (Matricaria inodora [21]; 80 g/ha): 90% | post-emergence efficacy MATIN (Matricaria inodora [21]; 320 g/ha): 90% | post-emergence efficacy POLCO (Polygonum convolvulus [22]; 80 g/ha): 60% | post-emergence efficacy POLCO (Polygonum convolvulus [22]; 320 g/ha): 80% | post-emergence efficacy SETVI (Setaria viridis [23]; 80 g/ha): 90% | post-emergence efficacy SETVI (Setaria viridis [23]; 320 g/ha): 90% | post-emergence efficacy STEME (Stellaria media [24]; 80 g/ha): 80% | post-emergence efficacy STEME (Stellaria media [24]; 320 g/ha): 100% | post-emergence efficacy VERPE (Veronica persica [25]; 320 g/ha): 100% | post-emergence efficacy VIOTR (Viola tricolor [26]; 80 g/ha): 90% | post-emergence efficacy VIOTR (Viola tricolor [26]; 320 g/ha): 90% | logP (HCOOH) (logP (HCOOH); HCOOH): oily; logP (HCOOH): 2.02; 1H NMR (CDCl3, 400 MHZ, δ in ppm): 2.10 (m, 1H, 1H of

Cc1cc2c(o1)CC(C)(C)CC2Nc1ncc(C(F)(F)F)c(N)n1 (stereo not shown) [compound 21, 5-(Trifluoromethyl)-N2-(2,6,6-trimethyl-4,5,6,7-tetrahydro-1-benzofuran-4-yl)pyrimidine-2,4-diamine]
chromatographic logP (logP (HCOOH)): 2.23 | melting point: 182.6 °C
